Where “and” joins values, the source holds several entries; their conditions need not be identical. Equal values may be shown once.
Tests used:
[1] = test system: VC reductive dehalogenase of Dehalococcoides sp. strain VS; experiment: VC-reduction enzyme assay with Ti(III)-reduced methyl viologen as electron donor, gas chromatography; format: biochemical
Description: Enzyme assays. Cells were harvested by centrifugation (20,000 g, 20 min, 4° C.) under strictly anoxic conditions using the anoxic chamber, washed and resuspended in degassed MOPS buffer (20 mM, pH 7.2) supplemented with 2 mM DTE and 0.2 mM titanium(III)NTA (buffer A). The buffer was incubated overnight in the anoxic chamber before addition of reducing agents. Cell-free extracts were obtained by anoxic disruption of cells by French Press treatment (138 MPa; two passages), followed by two centrifugation steps (30,000×g, 15 min, 4° C.).
Assays of VC-reduction were conducted as described previously in 2-ml glass vials under an N2/H2 atmosphere with Ti(III)-reduced methyl viologen as artificial electron donor (Rosner et al.) The protein concentration in the assay varied between 10 and 100 μg/ml. The test was started by addition of gaseous VC to the assay mix (total aqueous volume 0.3 ml), and change in VC and ethene concentrations were followed with time by gas chromatography. Experiments testing for reduction of liquid chlorinated ethenes (PCE, TCE, DCE-isomers) were carried out essentially as described above with the appropriate substitution of the chlorinated ethene. The chlorinated compounds were added from aqueous stock solutions.
Oxygen sensitivity of VC-reducing activity in cell-free extract was investigated in buffer amended with resazurin as redox indicator. Prior to addition of VC, the assay was exposed to air until the resazurin underwent a color-change from colorless to pink. Subsequently, the assay was rendered anoxic again by exchanging the gas phase inside the anoxic chamber followed by addition of Ti(III)NTA (5 mM final concentration). All enzyme assays were carried out at ambient temperature, and given activities are means of at least three independent measurements.
Partial purification of VC reductase. Protein purification was performed at 4° C. in the anoxic chamber. The membrane fraction was obtained by centrifugation of cell-free extract at 100,000×g for 90 min at 4° C. The pellet was resuspended in 1 ml buffer A supplemented with 2 mM 3-[(3-cholamidopropyl)dimethylammonio]-1-propanesulfonic acid (CHAPS), and incubated for 1 h on ice. After subsequent centrifugation (100,000×g, 90 min, 4° C.) the solubilized membrane fraction was diluted with an equal volume of buffer B (50 mM 1,3-Bis[tris(hydroxymethyl)methylamino]propane (Bis-Tris Propane), pH 9.6, 2 mM dithiothreitol, 0.2 mM titanium(III)NTA, 20 mM CHAPS), and loaded on a 1-ml HighTrap Q column (Amersham Pharmacia) equilibrated with buffer C (same as buffer B but with 2 mM CHAPS). VC reductive dehalogenase activity was eluted as a single peak (at 550 to 580 mM NaCl) with 10 ml buffer C followed by a 40-ml linear gradient from 0-700 mM NaCl in buffer C at a flow of 1 ml/min. Fractions containing the highest activity were pooled and mixed with an equal volume of buffer A containing 20 mM CHAPS, and applied to a Superose-6 column equilibrated with the same buffer. Enzyme activity was eluted with buffer A at a flow rate of 0.2 ml/min. The protein concentration of the samples was determined according to Bradford with bovine serum albumin as a standard.

KB-1/VC culture = experiment: Batch dechlorination and growth kinetics, KB-1/VC culture; format: cell-based, Dehalococcoides-like microorganisms; conditions: for Maximum Growth Rate: 95% confidence interval
Excerpt: Stock cultures. The Victoria mixed culture, containing strain VS, was maintained in a closed continuously stirred tank reactor (CSTR) as previously described. A VC enrichment of this culture, maintained over 5 years, was also used in these investigations. Liquid cultures of the three other cultures evaluated (Pinellas, KB-1/VC, and Dehalococcoides ethenogenes strain 195) were kept in anaerobic bottles, stored in an anaerobic chamber (10% H2, 10% CO2, 80% N2). The bottles were amended with TCE (1-3 μL neat liquid), VC (250 μL gas), and PCE (1-3 μL neat liquid) being added to each, respectively, approximately every two weeks.
Batch studies. For the experimental portion of this research, two studies were undertaken, one a comparative VC growth study, and the other a comparative growth and substrate utilization study with different chlorinated ethenes. These studies compared the dechlorination abilities of Dehalococcoides ethenogenes strain 195 and the Dehalococcoides-like microorganisms in the three mixed cultures (Victoria, KB-1/VC, and Pinellas).
For the first study, a VC enriched inoculum was first developed for each of the three mixed cultures. Here, bottles (120 mL) were filled with 60 mL of anaerobic media in an anaerobic chamber as previously described, and inoculated with 200 μL of each stock culture. Gaseous VC (99.5%) was added with a gas tight syringe (200 μL). The cultures were then moved to a shaker (60-80 rpm) in an anaerobic chamber (20±2° C.). Immediately after 5 μmol of ethene was formed in a bottle, 200 μL of the culture was transferred to fresh media (60 mL), in triplicate, and VC was again added (200 μL). The inoculum for the growth study was that formed after exactly 4 μmol of ethene was produced following this second transfer. To compare growth rates on VC, a range in concentration of each inocula (0.1, 0.3, 1, 3, 9 mL) was transferred to fresh media (as above) to result in a liquid volume of 60 mL, and gaseous VC (200 μL) was added to each. […] Hydrogen served as the electron donor and was non-limiting (>3%) in all studies. Headspace samples were periodically removed by syringe (250 μL) for chlorinated ethene analyses.
The purpose of the second study was to compare dechlorination rates of PCE, TCE and DCE between the three different cultures that grew on VC (Victoria, KB-1/VC and Pinellas). The development of inocula here was performed with VC, just as in the first study. For the growth and substrate utilization experiments, triplicate bottles were set up for each culture containing 1 mL of inoculum and either neat PCE (0.4 μL), neat TCE (0.3 μL), saturated DCE solution (34 μL) or gaseous VC (200 μL). To further investigate TCE removal, bottles (120 mL) were filled with 20 mL of a highly enriched culture of strain VS made from the Victoria culture. Duplicate bottles were supplied with gaseous VC (50 μL on day 0, then 150 μL on day 3) or TCE (0.4 μL neat liquid). Dechlorination was followed until all VC or TCE was converted to ethene (day 12). The change in strain VS concentration during VC and TCE utilization was then determined both by competitive PCR and by an activity procedure evaluated previously for strain VS. In the activity procedure a non-growth limiting concentration of VC (150 μL) along with excess hydrogen is added to a culture and the initial dechlorination rate is measured (over <1 day). A good estimate of strain VS concentration can then be obtained using the previously determined strain VS maximum VC utilization rate (7.8×10^−10 μmol Cl^− (cell·d)^−1). The increase in strain VS concentration during TCE or VC utilization was determined with these two procedures on the culture before and after TCE and VC utilization.
Comparative dechlorination and growth kinetics. With mixed cultures, the concentration of organisms carrying out a particular reaction is generally unknown and difficult to determine. […]

Row | Compound | reduction rate relative to reduction rate for cDCE to VC ([1]; reduction of TCE to cDCE) [%] | effect on the reduction rate of VC ([1]; saturating concentrations of PCE or TCE present) | Half velocity coefficient KT (KB-1/VC culture) [µM] | Maximum Growth Rate (KB-1/VC culture) | rate of reduction by active protein fractions ([1]; fractions after gel filtration, reduced methyl viologen as electron donor) | time to form 5 μmol of ethene (KB-1/VC culture; 200 μL VC) [days]
1 | ClC=C(Cl)Cl [TCE, trichloroethene] | 5 | not affected | 10.0 ± 2.0 | 0.33 ± 0.06 day⁻¹ |  | 
2 | C=CCl [VC, vinyl chloride] |  |  |  | 0.42 day⁻¹ and 0.42 ± 0.03 day⁻¹ | 350 nmol min^−1 [mg protein]^−1 | 18

From patent US8647824B2, “Microbial reductive dehalogenation of vinyl chloride” (The Board of Trustees of the Leland Stanford Junior …, priority 2004, dated 2014)
